The values that follow come from US20240279239A1, “COMPOUNDS AND METHODS FOR MODULATING SPLICING” (REMIX THERAPEUTICS INC., priority 2020, published 2024).

pIC50: −log10 of the molar value. Counter-ions that a name gives are not always drawn. Like-named read-outs stand apart in the source and are kept apart here.

What is called AC50 is the midpoint of the concentration-response curve, whichever way the signal moves. One may read the pIC50 as the negative decadic logarithm of the IC50, by convention in mol/L.

Format in all cases: cell-based
The subject of assay [1] is HTT. The assay is described as follows: RT-qPCR splicing assay for HTT mRNA isoforms (canonical junction CJ and alternative junction AJ). Particulars: A673 or K562 cell line, 24 hours treatment. The protocol: (§1) Example 44: Exemplary splicing assay for monitoring expression levels of splice variants Compounds described herein were used to modulate RNA transcript abundance in cells. The expression of a target mRNA was measured by detecting the formation of an exon-exon junction in the canonical transcript (CJ). A compound mediated exon-inclusion event was detected by observing an increase in formation of a new junction with an alternative exon (AJ). Real-time qPCR assays were used to detect these splicing switches and interrogate the potency of various compounds towards different target genes. A high-throughput real time quantitative PCR (RT-qPCR) assay was developed to measure these two isoforms of the mRNA (CJ and AJ) for an exemplary gene, HTT, together with a control housekeeping gene, GAPDH or GUSB or PPIA, used for normalization. Briefly, the A673 or K562 cell line was treated with various compounds described herein (e.g., compounds of Formula (I)). After treatment, the levels of the HTT mRNA targets were determined from each sample of cell lysate by cDNA synthesis followed by qPCR.
(§2) The A673 cell line was cultured in DMEM with 10% FBS. Cells were diluted with full growth media and plated in a 96-well plate (15,000 cells in 100 µl media per well). The plate was incubated at 37° C. with 5% CO2 for 24 hours to allow cells to adhere. An 11-point 3-fold serial dilution of the compounds was made in DMSO then diluted in media in an intermediate plate. Compounds were transferred from the intermediate plate to the cell plate with the top dose at a final concentration of 10 uM in the well. Final DMSO concentration was kept at or below 0.25%. The cell plate was returned to the incubator at 37° C. with 5% CO2 for an additional 24 hours.
(§3) The K562 cell line was cultured in IMDM with 10% FBS. For K562, cells were diluted with full growth media and plated in either a 96-well plate (50,000 cells in 50 uL media per well) or a 384-well plate (8,000-40,000 cells in 45 uL media per well). An 11-point 3-fold serial dilution of the compounds were made in DMSO then diluted in media in an intermediate plate. Compound was transferred from the intermediate plate to the cell plate with the top dose at a final concentration of 10 uM in the well. Final DMSO concentration was kept at or below 0.25%. Final volume was 100 uL for 96-well plate and 50 uL for 384-well plate. The cell plate was then placed in an incubator at 37° C. with 5% CO2 for 24 hours.
(§4) The cells were then gently washed with 50 uL-100 uL cold PBS before proceeding to addition of lysis buffer. 30 uL-50 uL of room temperature lysis buffer with DNAse I (and optionally RNAsin) was added to each well. Cells were shaken/mixed thoroughly at room temperature for 5-10 minutes for lysis to take place and then 3 uL-5 uL of room temperature stop solution was added and wells were shaken/mixed again. After 2-5 minutes, the cell lysate plate was transferred to ice for RT-qPCR reaction setup. The lysates could also be frozen at ˜80° C. for later use.
(§5) In some cases, a direct lysis buffer was used. An appropriate volume of 3× lysis buffer (10 mM Tris, 150 mM NaCl, 1.5%-2.5% Igepal and 0.1-1 U/uL RNAsin, pH 7.4) was directly added to either K562 or A673 cells in media and mixed by pipetting 3 times. The plates were then incubated at room temperature with shaking/rocking for 20-50 minutes to allow for lysis to take place. After this time, the cell lysate plate was transferred to ice to set up for the RT-qPCR reactions. The lysates could also be frozen at −80° C. for later use.
(§6) To set up 10 uL RT-qPCR reactions, cell lysates were transferred to 384-well qPCR plates containing the master mix according to the table below. The plates were sealed, gently vortexed, and spun down before the run. The volumes were adjusted accordingly in some instances where the reaction was carried in 20 uL. The table below summarizes the components of the RT-qPCR reactions: […]
In general terms: Quantitative PCR measures a nucleic acid by following its amplification.

The test system of assay [2] is HTT. The assay is described as follows: RT-qPCR canonical junction panel assay, HTT. Particulars: gene panel, read-out: HTT IC50 (decrease in CJ mRNA levels). The protocol: as §1, §2, §3, §4, §5, §6
Assay [3] relates to SMN2. Put plainly: RT-qPCR canonical junction panel assay, SMN2. To be noted: gene panel, read-out: SMN2 IC50 (decrease in CJ mRNA levels). As for the experimental part: as §1, §2, §3, §4, §5, §6
In assay [4] the test system is Target C. Put plainly: RT-qPCR canonical junction panel assay, Target C. Particulars: gene panel, read-out: Target C IC50 (decrease in CJ mRNA levels). As for the experimental part:
as §1, §2, §3, §4, §5, §6

The mark [5] stands for this setting: decrease in CJ mRNA levels, read-out: HTT CJ AC50.
Setting [6] is: increase in AJ mRNA, read-out: HTT AJ AC50.

For `Cc1cn2cc(-c3nn4c(=O)cc(N(C)C5CC(C)(C)NC(C)(C)C5)nc4s3)cc(F)c2n1` [Compound 215, 2-(8-fluoro-2-methylimidazo[1,2-α]pyridin-6-yl)-7-(methyl(2,2,6,6-tetramethylpiperidin-4-yl)amino)-5H-[1,3,4]thiadiazolo[3,2-α]pyrimidin-5-one], the AC50 in assay [1] (setting [5]) and in assay [1] (setting [6]) was 1 to 10 µM each time. The results for the pIC50 in assay [2], in assay [3] and in assay [4] were 5.00 to 6.00, 6.00 to 7.00 and 5.00 to 6.00, respectively.
On to `Cc1cn2cc(-c3nn4c(=O)cc(N5CCNC6(CC6)C5)nc4s3)cc(F)c2n1` [Compound 216, 2-(8-fluoro-2-methylimidazo[1,2-α]pyridin-6-yl)-7-(4,7-diazaspiro[2.5]octan-7-yl)-5H-[1,3,4]thiadiazolo[3,2-α]pyrimidin-5-one], for which the AC50 in assay [1] (setting [5]) and in assay [1] (setting [6]) was 1 to 10 µM throughout. Moreover, the pIC50 in assay [2], in assay [3] and in assay [4] was 5.00 to 6.00 in each case.
`Cc1cn2cc(-c3nn4c(=O)cc(N5CCN(C)CC5)nc4s3)cc(F)c2n1` [Compound 217, 2-(8-fluoro-2-methylimidazo[1,2-α]pyridin-6-yl)-7-(4-methylpiperazin-1-yl)-5H-[1,3,4]thiadiazolo[3,2-α]pyrimidin-5-one]: the concentration at half-maximal activity (AC50) in assay [1] (setting [5]) and in assay [1] (setting [6]) was 1 to 10 µM in each case. Moreover, the pIC50 in assay [2], in assay [3] and in assay [4] was 5.00 to 6.00 each time.
With `Cc1cn2cc(-c3nn4c(=O)cc(N5CCN(C)C6(CC6)C5)nc4s3)cc(F)c2n1` [Compound 218, 2-(8-fluoro-2-methylimidazo[1,2-α]pyridin-6-yl)-7-(4-methyl-4,7-diazaspiro[2.5]octan-7-yl)-5H-[1,3,4]thiadiazolo[3,2-α]pyrimidin-5-one], the AC50 in assay [1] (setting [5]) and in assay [1] (setting [6]) was 1 to 10 µM each time. Further, the pIC50 in assay [2], in assay [3] and in assay [4] was 5.00 to 6.00 in each case.
For `Cn1cc2cc(-n3cnc4nc(N5CCNCC5)sc4c3=O)ccc2n1` [Compound 225, 6-(2-methyl-2H-indazol-5-yl)-2-(piperazin-1-yl)thiazolo[4,5-d]pyrimidin-7(6H)-one], the AC50 in assay [1] (setting [5]) and in assay [1] (setting [6]) was over 10 µM each time. Further, the pIC50 in assay [2], in assay [3] and in assay [4] was under 5.00 throughout.
Regarding `Cc1cn2cc(-n3cnc4nc(N5CCNCC5)sc4c3=O)cc(F)c2n1` [Compound 226, 6-(8-fluoro-2-methylimidazo[1,2-α]pyridin-6-yl)-2-(piperazin-1-yl)thiazolo[4,5-d]pyrimidin-7(6H)-one], the concentration at half-maximal activity (AC50) in assay [1] (setting [5]) and in assay [1] (setting [6]) was 0.1 to 1 µM throughout. Further, the pIC50 in assay [2], in assay [3] and in assay [4] was 6.00 to 7.00 throughout.
As for `Cc1cn2cc(-n3cnc4nc(N(C)C5CC(C)(C)NC(C)(C)C5)sc4c3=O)cc(F)c2n1` [Compound 227, 6-(8-fluoro-2-methylimidazo[1,2-α]pyridin-6-yl)-2-(methyl(2,2,6,6-tetramethylpiperidin-4-yl)amino)thiazolo[4,5-d]pyrimidin-7(6H)-one, formate], the AC50 in assay [1] (setting [5]) and in assay [1] (setting [6]) was over 10 µM in each case. Besides, the pIC50 in assay [2], in assay [3] and in assay [4] was under 5.00 in each case.
As for `Cc1cn2cc(-n3cnc4nc(N5CCN(C)CC5)sc4c3=O)cc(F)c2n1` [Compound 228, 6-(8-fluoro-2-methylimidazo[1,2-α]pyridin-6-yl)-2-(4-methylpiperazin-1-yl)thiazolo[4,5-d]pyrimidin-7(6H)-one], the concentration at half-maximal activity (AC50) in assay [1] (setting [5]) and in assay [1] (setting [6]) was 1 to 10 µM each time. Also, the pIC50 in assay [2], in assay [3] and in assay [4] was 5.00 to 6.00 in each case.
As to `Cc1cn2cc(-n3cnc4nc(N5CCNCC5)sc4c3=O)cc(C(F)(F)F)c2n1` [Compound 229, 6-(2-methyl-8-(trifluoromethyl)imidazo[1,2-α]pyridin-6-yl)-2-(piperazin-1-yl)thiazolo[4,5-d]pyrimidin-7(6H)-one], the half-maximal activity concentration (AC50) in assay [1] (setting [5]) and in assay [1] (setting [6]) was over 10 µM throughout. In addition, the pIC50 in assay [2], in assay [3] and in assay [4] was under 5.00 in each case.
`Cc1cn2cc(-n3cnc4nc(N5CCN(C)CC5)sc4c3=O)cc(C(F)(F)F)c2n1` [Compound 230, 6-(2-methyl-8-(trifluoromethyl)imidazo[1,2-α]pyridin-6-yl)-2-(4-methylpiperazin-1-yl)thiazolo[4,5-d]pyrimidin-7(6H)-one]: the AC50 in assay [1] (setting [5]) and in assay [1] (setting [6]) was over 10 µM each time. For the same compound, the pIC50 in assay [2], in assay [3] and in assay [4] was under 5.00 throughout.
For `Cc1cn2nc(-c3nc4ncn(C5CCNCC5)c(=O)c4s3)cc(C)c2n1` [Compound 231, 2-(2,8-dimethylimidazo[1,2-b]pyridazin-6-yl)-6-(piperidin-4-yl)thiazolo[4,5-d]pyrimidin-7(6H)-one], the AC50 in assay [1] (setting [5]) and in assay [1] (setting [6]) was 0.1 to 1 µM in each case. The pIC50 in assay [2] was 6.00 to 7.00; in assay [3] it was 5.00 to 6.00; in assay [4], 5.00 to 6.00.
Take `Cc1cn2cc(-c3nc4ncn(C5CCNCC5)c(=O)c4s3)cc(F)c2n1` [Compound 232, 2-(8-fluoro-2-methylimidazo[1,2-α]pyridin-6-yl)-6-(piperidin-4-yl)thiazolo[4,5-d]pyrimidin-7(6H)-one]: the AC50 in assay [1] (setting [5]) and in assay [1] (setting [6]) was under 0.1 µM throughout. Further, the negative-log IC50 (pIC50) was over 7.00 in assay [2], over 7.00 in assay [3] and 6.00 to 7.00 in assay [4].
`Cc1cc(-c2nc3ncn(C4CCNCC4)c(=O)c3s2)cc2cn(C)nc12` [Compound 233, 2-(2,7-dimethyl-2H-indazol-5-yl)-6-(piperidin-4-yl)thiazolo[4,5-d]pyrimidin-7(6H)-one]: the AC50 in assay [1] (setting [5]) and in assay [1] (setting [6]) was under 0.1 µM throughout. For the same compound, the pIC50 in assay [2] is over 7.00; in assay [3], over 7.00; in assay [4], 6.00 to 7.00.
Consider `Cc1cc(-c2nc3ncn(C4CCN(C)CC4)c(=O)c3s2)cc2cn(C)nc12` [Compound 234, 2-(2,7-dimethyl-2H-indazol-5-yl)-6-(1-methylpiperidin-4-yl)thiazolo[4,5-d]pyrimidin-7(6H)-one], for which the AC50 in assay [1] (setting [5]) and in assay [1] (setting [6]) was 0.1 to 1 µM each time. Also, the pIC50 is 6.00 to 7.00 in assay [2], over 7.00 in assay [3] and 5.00 to 6.00 in assay [4].
For `Cc1cn2cc(-c3cc4ncn(C5CCNCC5)c(=O)c4s3)cc(F)c2n1` [Compound 235, 6-(8-fluoro-2-methylimidazo[1,2-α]pyridin-6-yl)-3-(piperidin-4-yl)thieno[3,2-d]pyrimidin-4(3H)-one], the AC50 in assay [1] (setting [5]) and in assay [1] (setting [6]) was under 0.1 µM throughout. Also, the pIC50 in assay [2] is over 7.00; in assay [3] it was over 7.00; in assay [4], 6.00 to 7.00.
